Results taken from patent publication US20130338176A1, “METHODS OF PREVENTING AND TREATING HYPERLIPIDEMIA OR ATHEROSCLEROSIS” (The Trustees of Columbia University in the City of New York, priority 2010, published 2013).

Columns and labels:
adipose tissue explants [1] = test: Adipose tissue explants, FFA and glycerol release on stimulation with serotonin; type: cell-based, mice; settings: white adipose tissue explants, ex vivo
Protocol: (§1) Epigonadal fat pads were isolated from 8 week old wild type male mice, cut into 20 mg fragments, and placed in culture medium (DMEM low glucose, 0.1% bovine serum albumin, both from Invitrogen) in a cell incubator (37° C., 5% CO2 atmosphere) for 2 h. After this time, the fat explants were stimulated for 2 h with different concentrations of serotonin. Concentrations of free fatty acids (FFA) and glycerol were measured in the medium. For gene expression analysis, tissue was homogenized in TRIZOL® reagent (Sigma) and RNA was isolated according to the manufacturer's instructions. The RNA was used as a template for cDNA synthesis (cDNA synthesis kit, Invitrogen). The relative gene expression was quantified using Real Time PCR.

adipose tissue explants [2] = test: Adipose tissue explants, mRNA expression of lipolysis genes (Real Time PCR); type: cell-based, mice; settings: 25 μM serotonin, vs untreated control
Protocol: as §1

ApoE−/− mice [3] = test: Atherosclerotic plaque area in Oil Red O stained aortas, ApoE−/− mice; type: in vivo; settings: vs placebo
Excerpt: (§2) To study the effect of gut-derived serum or plasma serotonin on the development of atherosclerosis, two well-studied genetic mouse models of hypercholesterolemia and atherosclerosis were used, namely mice with deletions in both copies of the apoliprotein E gene (referred to as ApoE−/− mice) and mice carrying deletions of both copies of the low density lipoprotein receptor gene (LDLR−/− mice). These mice have elevated blood cholesterol levels due to a defect in hepatic clearance of cholesterol containing very low density lipoproteins and low density lipoproteins (Ishibashi et al., 1993, J. Clin. Invest. 92:883-893; Plump et al., 1992, Cell 71:343-353). To accelerate the process of atherosclerotic plaque development, the mice were placed on a high cholesterol rodent diet at 5 weeks of age and fed this diet for 12 weeks. […]
(§3) After 12 weeks of high cholesterol diet and administration of therapeutic agent or placebo, the mice were sacrificed to determine the amount of atheromas in their aortas. […] A quantitative computer-assisted image analysis (ImageJ) of the plaque staining areas was performed and correlated with the whole vessel wall areas.

ApoE−/− mice [4] = test: Plasma cholesterol, triglyceride, glycerol and free fatty acid levels, ApoE−/− mice; type: in vivo
Excerpt: (§4) To study the effect of gut-derived serum or plasma serotonin on the development of atherosclerosis, two well-studied genetic mouse models of hypercholesterolemia and atherosclerosis were used, namely mice with deletions in both copies of the apoliprotein E gene (referred to as ApoE−/− mice) and mice carrying deletions of both copies of the low density lipoprotein receptor gene (LDLR−/− mice). These mice have elevated blood cholesterol levels due to a defect in hepatic clearance of cholesterol containing very low density lipoproteins and low density lipoproteins (Ishibashi et al., 1993, J. Clin. Invest. 92:883-893; Plump et al., 1992, Cell 71:343-353). To accelerate the process of atherosclerotic plaque development, the mice were placed on a high cholesterol rodent diet at 5 weeks of age and fed this diet for 12 weeks. During this period, the mice were orally administrated placebo (diluent) or LP-533401, an inhibitor of tryptophan hydroxylase 1 (TPH1), the key enzyme required for serum or plasma serotonin synthesis, at the dose of 200 mg per kg of body weight per day (FIG. 1).
(§5) Cholesterol, triglycerides, glycerol, and free fatty acids were measured in plasma from 4 hours fasted mice using commercially available kits (Cholesterol E, Wako, Cat. No. 439-17501; Triglycerides determination kit, Sigma, Cat. No. TR0100-1KT (measures both triglycerides and glycerol), HR Series NEFA-HR, Wako, Cat. No. 999-34691) according to the manufacturer's instructions.

wild type mice = test: Plasma cholesterol, triglyceride, glycerol and free fatty acid levels, wild type mice; type: in vivo; settings: vs placebo
Protocol: as §5

LDLR−/− mice [5] = test: Atherosclerotic plaque area in Oil Red O stained aortas, LDLR−/− mice; type: in vivo; settings: vs placebo
Excerpt: as §2, §3

LDLR−/− mice [6] = test: Plasma cholesterol and triglyceride levels, LDLR−/− mice; type: in vivo; settings: high cholesterol diet, vs placebo
Excerpt: as §2, §5

ApoE−/− mice [7] = test: Plasma serotonin determination (ELISA), ApoE−/− mice; type: in vivo; settings: high cholesterol diet 12 weeks, 200 mg per kg per day orally, vs placebo
Excerpt: as §4
Serotonin content in the plasma was determined using Serotonin research ELISA (IBL, Cat. No. IB89540) according to the manufacturer's instructions.

[8] = 2 h stimulation, all tested concentrations
[9] = ApoE−/− mice fed high cholesterol diet, vs placebo
[10] = ApoE−/− mice fed normal rodent chow diet, vs placebo

For `NCCc1c[nH]c2ccc(O)cc12` [serotonin, 5-hydroxytryptamine], the “concentration giving the highest stimulation of FFA and glycerol secretion” value (adipose tissue explants [1]) was 25 µM, the “secretion of FFA from the adipose tissue” value (adipose tissue explants [1]; [8]) was “stimulated secretion” and the “secretion of glycerol from the adipose tissue” value (adipose tissue explants [1]; [8]) was “stimulated secretion”. For the same compound, the “expression levels of CGI58” value (adipose tissue explants [2]) was “does not influence the expression levels”, the “expression levels of GOS2” value (adipose tissue explants [2]) was “does not influence the expression levels” and the “expression levels of perilipin” value (adipose tissue explants [2]) was “does not influence the expression levels”. For the same compound, the “expression of adipose triglyceride lipase (ATGL)” value (adipose tissue explants [2]) was “does not affect” and the “expression of hormone sensitive lipase (HSL)” value (adipose tissue explants [2]) was “promotes the expression”.

`Nc1nc(OC(c2ccc(-c3cccc(F)c3)cc2)C(F)(F)F)cc(-c2ccc(C[C@H](N)C(=O)O)cc2)n1` (stereo partly drawn) [LP-533401] was tested, and the “reduction of the area occupied by atherosclerotic plaques” value (ApoE−/− mice [3]; high cholesterol diet 12 weeks, 200 mg per kg of body weight per day orally) was 44%, the “atheroma formation” value (ApoE−/− mice [3]; FIG. 2) was “decreased atheroma formation” and the FFA levels (ApoE−/− mice [4]; [9]) was “reduced”. For the same compound, the glycerol levels (ApoE−/− mice [4]; [9]) was “reduced”, the FFA levels (ApoE−/− mice [4]; [10]) was “reduced” and the glycerol levels (ApoE−/− mice [4]; [10]) was “reduced”. For the same compound, the “cholesterol levels in plasma, reduced in comparison to placebo” value (ApoE−/− mice [4]; ApoE−/− mice, high cholesterol diet, 200 mg per kg per day orally, 4 hours fasted) was 30%, the triglyceride levels (ApoE−/− mice [4]; ApoE−/− mice, high cholesterol diet, vs placebo) was “does not alter triglyceride levels” and the FFA levels (wild type mice) was “reduced”. The cholesterol levels (wild type mice) was “did not alter cholesterol levels”, the glycerol levels (wild type mice) was “reduced” and the triglyceride levels (wild type mice) was “lowers triglyceride levels”. For the same compound, the “reduction in the amount of atherosclerotic plaques” value (LDLR−/− mice [5]; high cholesterol diet 12 weeks, 200 mg per kg per day orally) was 40%, the “atheroma formation” value (LDLR−/− mice [5]; FIG. 3) was “lowers atheroma formation” and the triglyceride levels (LDLR−/− mice [6]) was “does not alter triglyceride levels”. For the same compound, the “reduction of plasma serotonin levels” value (ApoE−/− mice [7]) was 80%.
